The values that follow come from patent US20110190365A1, “Insecticidal 4-phenyl-1H-pyrazoles” (Bayer Crop Science AG, priority 2008, published 2011).

Structures are written as SMILES.

The first series in a line: log P by HPLC on a reversed-phase column (C18), EEC Directive 79/831 Annex V.A8. It counts as physicochemical. Particulars: HCOOH. As for the experimental part:
The stated log P values were determined in accordance with EEC Directive 79/831 Annex V.A8 by HPLC (High Performance Liquid Chromatography) using a reversed-phase column (C18).
On to `CC(C)NC(=O)c1ccc(-n2nc(C(F)(F)F)c(-c3cc(Cl)cc(Cl)c3)c2N)cc1` [I-A-Q2-135], for which the “log P (HCOOH)” value is “I-A-Q2-135: log P (HCOOH): 4.06”. For `Cc1cc(-n2nc(C(F)(F)F)c(-c3cc(C(F)(F)F)cc(C(F)(F)F)c3)c2N)ccc1C(=O)NCC(F)(F)C(F)F` [I-A-Q2-318], the “log P (HCOOH)” value is given as “I-A-Q2-318: log P (HCOOH): 4.23”. Turning to `Cc1cc(-n2nc(C(F)(F)F)c(-c3cc(Cl)cc(Cl)c3)c2N)ccc1C(=O)NCC(F)(F)C(F)(F)C(F)(F)C(F)(F)C(F)(F)C(F)(F)C(F)(F)F` [I-A-Q2-267], the “log P (HCOOH)” value is “I-A-Q2-267: log P (HCOOH): 6.14”.

`CC(C)(C)NC(=O)c1ccc(-n2nc(C(F)(F)F)c(-c3cc(Cl)cc(Cl)c3)c2N)cc1` [I-A-Q2-146]: the “log P (HCOOH)” value is reported as “I-A-Q2-146: log P (HCOOH): 4.54”. Still for that read-out and setting: under `Nc1c(-c2ccc(Cl)c(F)c2)c(C(F)(F)F)nn1-c1ccc(C(=O)NC2CC2)cc1` [I-A-Q2-167] stands “I-A-Q2-167: log P (HCOOH): 3.19”. As for `Cc1cc(-n2nc(C(F)F)c(-c3ccc(F)cc3F)c2N)ccc1C(=O)NCC(F)(F)C(F)F` [I-A-Q2-319], the “log P (HCOOH)” value is “I-A-Q2-319: log P (HCOOH): 2.80”.

Consider `CSc1c(-c2cc(Cl)cc(Cl)c2)c(C(F)(F)F)nn1-c1ccc(C(=O)NCc2ccccn2)c(C)c1` [I-A-Q2-028], for which the “log P (HCOOH)” value is given as “I-A-Q2-028: log P (HCOOH): 4.35”. In the case of `COc1ccnc(CNC(=O)c2ccc(-n3nc(C(F)(F)F)c(-c4cc(Cl)cc(Cl)c4)c3N)cc2C)c1` [I-A-Q2-052], the “log P (HCOOH)” value is “I-A-Q2-052: log P (HCOOH): 2.34”.

`Cc1cc(-n2nc(C(F)(F)F)c(-c3cc(Cl)cc(Cl)c3)c2N)ccc1C(=O)NCC(F)(F)C(F)F` [I-A-Q2-035]: the “log P (HCOOH)” value is “I-A-Q2-035: log P (HCOOH): 4.23”.

Regarding `Cc1cc(-n2nc(C(F)(F)F)c(-c3ccccc3Cl)c2N)ccc1C(=O)NCc1ccccn1` [I-A-Q2-351], the “log P (HCOOH)” value is “I-A-Q2-351: log P (HCOOH): 2.27”. In the case of `CC(C)NC(=O)c1ccc(-n2nc(C(F)(F)F)c(-c3ccc(Cl)c(Cl)c3)c2N)cc1` [I-A-Q2-154], the “log P (HCOOH)” value is listed as “I-A-Q2-154: log P (HCOOH): 3.75”. With `Nc1c(-c2ccc(F)c(F)c2)c(C(F)(F)F)nn1-c1ccc(C(=O)NC2CC2)cc1` [I-A-Q2-176], the “log P (HCOOH)” value is “I-A-Q2-176: log P (HCOOH): 2.89”. Turning to `Cc1cnc2c(c1)CCCC2NC(=O)c1ccc(-n2nc(C(F)(F)F)c(-c3cc(Cl)cc(Cl)c3)c2N)cc1C` (centres unmarked) [I-A-Q2-051], the “log P (HCOOH)” value is listed as “I-A-Q2-051: log P (HCOOH): 3.06”. In the case of `Cc1cc(-n2nc(C(F)(F)F)c(Br)c2N)ccc1C(=O)O` [XI-A-086], the “log P (HCOOH)” value was “XI-A-086: log P (HCOOH): 2.54”. Consider `Nc1c(-c2cccc(F)c2)c(C(F)(F)F)nn1-c1ccc(C(=O)NCc2ccccn2)cc1` [I-A-Q2-185], for which the “log P (HCOOH)” value is “I-A-Q2-185: log P (HCOOH): 2.14”.

In the case of `Cc1cc(-n2nc(C(F)(F)F)c(-c3cc(F)cc(Cl)c3)c2N)ccc1C(=O)NCc1ccccn1` [I-A-Q2-344], the “log P (HCOOH)” value is “I-A-Q2-344: log P (HCOOH): 2.84”. On the same count and under the same terms, under `CC(C)CC(NC(=O)c1ccc(-n2nc(C(F)(F)F)c(-c3cc(Cl)cc(Cl)c3)c2N)cc1)C(F)(F)F` (centres unmarked) [I-A-Q2-070] stands “I-A-Q2-070: log P (HCOOH): 5.25”. With `CC(NC(=O)c1ccc(-n2nc(C(F)(F)F)c(-c3cc(F)cc(Cl)c3)c2N)cc1)c1ccccc1` (centres unmarked) [I-A-Q2-090], the “log P (HCOOH)” value is listed as “I-A-Q2-090: log P (HCOOH): 4.11”. In the case of `CSc1c(-c2cc(Cl)cc(Cl)c2)c(C(F)(F)F)nn1-c1ccc(C(=O)NCc2ncccn2)c(C)c1` [I-A-Q2-276], the “log P (HCOOH)” value was “I-A-Q2-276: log P (HCOOH): 4.50”. Same read-out and setting: with `Cc1cc(-n2nc(C)c(-c3c(F)cc(F)cc3F)c2N)ccc1C(=O)NCC(F)(F)C(F)F` [I-A-Q2-328] the entry was “I-A-Q2-328: log P (HCOOH): 2.48”; with `CC(C)NC(=O)c1ccc(-n2nc(C(F)(F)F)c(-c3ccc(Br)cc3)c2N)cc1` [I-A-Q2-187], “I-A-Q2-187: log P (HCOOH): 3.42”; with `Cc1cc(-n2nc(C(F)(F)F)c(I)c2N)ccc1C(=O)NCC(F)(F)C(F)F` [XI-A-094], “XI-A-094: log P (HCOOH): 3.08”.

Regarding `Cc1cc(-n2nc(C)c(-c3c(F)cccc3Cl)c2N)ccc1C(=O)NCc1ccccn1` [I-A-Q2-374], the “log P (HCOOH)” value is recorded as “I-A-Q2-374: log P (HCOOH): 1.66”.

As for `CCC(CC)NC(=O)c1ccc(-n2nc(C(F)(F)F)c(-c3cc(Cl)cc(Cl)c3)c2N)cc1C` [I-A-Q2-225], the “log P (HCOOH)” value is “I-A-Q2-225: log P (HCOOH): 4.57”.

With `CC(NC(=O)c1ccc(-n2nc(C(F)(F)F)c(-c3ccccc3Cl)c2N)cc1)C(F)(F)F` (centres unmarked) [I-A-Q2-079], the “log P (HCOOH)” value is “I-A-Q2-079: log P (HCOOH): 3.37”. Regarding `COc1cccc(C(F)(F)c2nn(-c3ccc(C(=O)NCC(F)(F)C(F)F)c(C)c3)c(N)c2-c2cc(Cl)cc(C(F)(F)F)c2)c1` [I-A-Q2-288], the “log P (HCOOH)” value is recorded as “I-A-Q2-288: log P (HCOOH): 4.40”. On the same count and under the same terms, with `Nc1c(-c2cccc(Br)c2)c(C(F)(F)F)nn1-c1ccc(C(=O)NC2CC2)cc1` [I-A-Q2-173] the entry was “I-A-Q2-173: log P (HCOOH): 3.11”; with `Cc1cc(-n2nc(C(F)(F)F)c(-c3cccc(Br)c3)c2N)ccc1C(=O)NCc1ccccn1` [I-A-Q2-357], “I-A-Q2-357: log P (HCOOH): 2.72”; with `Cc1cc(-n2nc(C(F)F)c(-c3ccc(Cl)cc3)c2N)ccc1C(=O)NCc1ccccn1` [I-A-Q2-362], “I-A-Q2-362: log P (HCOOH): 2.27”.

Take `Cc1cc(-n2nc(C(F)(F)F)c(-c3cc(Cl)cc(Cl)c3)c2N)ccc1C(=O)NCC(C)O` (centres unmarked) [I-A-Q2-262]: the “log P (HCOOH)” value was “I-A-Q2-262: log P (HCOOH): 3.28”. `Cc1cc(-n2nc(C(F)(F)F)c(-c3cc(Cl)cc(Cl)c3)c2I)ccc1C(=O)NC(C)C(F)(F)F` (centres unmarked) [I-A-Q2-026]: the “log P (HCOOH)” value is recorded as “I-A-Q2-026: log P (HCOOH): 5.44”. Turning to `CC(NC(=O)c1ccc(-n2nc(C(F)(F)F)c(-c3ccccc3Cl)c2N)cc1)c1ccccc1` (centres unmarked) [I-A-Q2-081], the “log P (HCOOH)” value is “I-A-Q2-081: log P (HCOOH): 3.58”. Still for that read-out and setting: with `Cc1cc(-n2nc(C(F)(F)F)c(-c3cc(Cl)cc(Cl)c3)c2N)ccc1C(=O)NCc1ccccc1` [I-A-Q2-271] the entry was “I-A-Q2-271: log P (HCOOH): 4.45”; with `Nc1c(-c2ccc(Cl)c(Cl)c2)c(C(F)(F)F)nn1-c1ccc(C(=O)NC2CC2)cc1` [I-A-Q2-157], “I-A-Q2-157: log P (HCOOH): 3.51”; with `Cc1cc(-n2nc(-c3ccccc3)c(-c3ccc(Cl)cc3)c2N)ccc1C(=O)NCc1ccccn1` [I-A-Q2-377], “I-A-Q2-377: log P (HCOOH): 2.80”.

For `Cc1cc(C)cc(-c2c(C(F)(F)F)nn(-c3ccc(C(=O)NCc4ccccn4)cc3)c2N)c1` [I-A-Q2-180], the “log P (HCOOH)” value is “I-A-Q2-180: log P (HCOOH): 2.61”.

For `Cc1nc(CNC(=O)c2ccc(-n3nc(C(F)(F)F)c(-c4cc(Cl)cc(Cl)c4)c3N)cc2C)no1` [I-A-Q2-059], the “log P (HCOOH)” value is on record as “I-A-Q2-059: log P (HCOOH): 3.63”.

Still in this series, the particulars now being: HCOOH; Table 4, compounds of formula I-A-Q4.
As for `N#Cc1cc(-n2nc(C(F)(F)F)c(-c3cc(Cl)cc(Cl)c3)c2N)ccc1S(=O)(=O)NCC(F)(F)F` [I-A-Q4-123], the “log P (HCOOH)” value is reported as “I-A-Q4-123: log P (HCOOH): 4.41”.

In the case of `Cc1nn(-c2ccc(Cl)cn2)c(N)c1-c1cccc(Cl)c1` [I-A-Q4-034], the “log P (HCOOH)” value is reported as “I-A-Q4-034: log P (HCOOH): 4.40”. Take `Nc1c(-c2ccc(Cl)c(Cl)c2)c(C(F)(F)F)nn1-c1ccc(C(=O)O)cc1` [I-A-Q4-089]: the “log P (HCOOH)” value was “I-A-Q4-089: log P (HCOOH): 3.69”. `Nc1c(-c2ccc(F)c(Cl)c2)c(C(F)(F)F)nn1-c1ccc(Cl)cn1` [I-A-Q4-047]: the “log P (HCOOH)” value was “I-A-Q4-047: log P (HCOOH): 4.95”. In the case of `Cc1cc(C)cc(-c2c(C(F)(F)F)nn(-c3ccc(Cl)cn3)c2N)c1` [I-A-Q4-022], the “log P (HCOOH)” value is “I-A-Q4-022: log P (HCOOH): 5.22”. For `Cc1cc(C)cc(-c2c(C(F)(F)F)nn(-c3ccc(C(=O)O)cc3)c2N)c1` [I-A-Q4-090], the “log P (HCOOH)” value is given as “I-A-Q4-090: log P (HCOOH): 3.42”. Still for that read-out and setting: under `Cc1nn(-c2ccc(Cl)cn2)c(N)c1-c1ccc(Cl)cc1` [I-A-Q4-039] stands “I-A-Q4-039: log P (HCOOH): 4.40”.

Turning to `Nc1c(-c2ccc(I)cc2)c(C(F)(F)F)nn1-c1ccc(Cl)cn1` [I-A-Q4-051], the “log P (HCOOH)” value is “I-A-Q4-051: log P (HCOOH): 5.29”.

Still in this series, the particulars now being: HCOOH; compounds of the formula (IX), Table 11.
For `CC(=O)Nc1[nH]nc(C(F)(F)F)c1-c1cc(Cl)cc(Cl)c1` [IX-203], the “log P (HCOOH)” value is recorded as “IX-203: log P (HCOOH): 2.98”.

The series is the same for the next values; noted with them: HPLC, reversed-phase C18, mobile phase with formic acid.
`N#Cc1cc(-n2nc(C(F)(F)F)c(-c3cccc(F)c3)c2N)ccc1-n1cncn1` [I-A-Q1-042]: the “log P (HCOOH)” value is on record as “I-A-Q1-042: log P (HCOOH): 2.84”. The same measure, in the same setting: with `N#Cc1cc(-n2nc(C(F)(F)F)c(-c3cc(Cl)cc(Cl)c3)c2N)ccc1-n1nc(C(F)(F)F)nc1N` [I-A-Q1-093] the entry was “I-A-Q1-093: log P (HCOOH): 4.00”. Take `N#Cc1cc(-n2nc(C(F)(F)F)c(-c3ccc(Cl)c(Cl)c3)c2N)ccc1-n1cncn1` [I-A-Q1-031]: the “log P (HCOOH)” value is “I-A-Q1-031: log P (HCOOH): 3.60”. For the molecule `N#Cc1cc(-n2nc(C(F)(F)F)c(-c3cc(Cl)cc(Cl)c3)c2N)ccc1-n1ccnc1C#N` [I-A-Q1-077], the “log P (HCOOH)” value is recorded as “I-A-Q1-077: log P (HCOOH): 4.05”. On to `N#Cc1cc(-n2nc(C(F)(F)F)c(-c3cc(C(F)(F)F)cc(C(F)(F)F)c3)c2N)ccc1-n1cncn1` [I-A-Q1-027], for which the “log P (HCOOH)” value is “I-A-Q1-027: log P (HCOOH): 4.07”. As for `N#Cc1cc(-n2nc(C(F)(F)F)c(-c3ccc(F)c(F)c3)c2N)ccc1-n1cncn1` [I-A-Q1-044], the “log P (HCOOH)” value was “I-A-Q1-044: log P (HCOOH): 3.10”.

Take `N#Cc1cc(-n2nc(C(F)(F)F)c(-c3ccc(F)c(Cl)c3)c2N)ccc1-n1cncn1` [I-A-Q1-036]: the “log P (HCOOH)” value is on record as “I-A-Q1-036: log P (HCOOH): 3.24”.

Turning to `Nc1c(-c2cc(Cl)cc(Cl)c2)c(C(F)(F)F)nn1-c1ccc(-n2cncn2)c(-n2cncn2)c1` [I-A-Q1-075], the “log P (HCOOH)” value is “I-A-Q1-075: log P (HCOOH): 3.28”. For `Cc1nn(-c2ccc(-n3cncn3)c(C#N)c2)c(N)c1-c1ccc(Cl)c(Cl)c1` [I-A-Q1-025], the “log P (HCOOH)” value is recorded as “I-A-Q1-025: log P (HCOOH): 3.02”.

The series is the same for the next values; noted with them: HPLC, reversed-phase C18, mobile phase with formic acid; read-out: log P (HCOOH).
For `Cc1cc(-n2nc(C(F)(F)F)c(-c3cc(Cl)cc(Cl)c3)c2N)ccc1C(=O)O` [I-A-Q4-010, 4-[5-Amino-4-(3,5-dichlorophenyl)-3-trifluoromethylpyrazol-1-yl]-2-methylbenzoic acid], the chromatographic logP is 4.04.
